Experiment: HLB value of emulsifiers
Assay type: physicochemical
Conditions: emulsifier raw material
Description: The HLB value (Hydrophile Lipophile Balance) refers to a value showing hydrophilicity of a surfactant. This is an index representing the balance of the lipophilicity and hydrophilicity of the object compound, which is determined as a relative value to an HLB value for a hypothetical compound, generally an ethylene oxide adduct-type nonionic surfactant having an infinite long hydrophilic group attached to a lipophilic group and having the maximum hydrophilicity, which is set to 20, and to an HLB value for a lipophilic compound having no hydrophilic group, which is set to 0.

Row | Molecule | HLB
1 | CCCCCCCC/C=C\CCCCCCCC(=O)OCC(O)CO (stereo not drawn) [Glycerol oleate, glycerol monooleate] | 4.3
2 | decaglycerol laurate [Decaglycerol monolaurate] | 15.0
3 | diglycerol monooleate | 7.4

From patent US7947305B2, “Fat-soluble drug composition” (Riken Vitamin Co., Ltd., priority 2005, dated 2011)
